# In US10681909B2, “Herbicidal triazoles” (FMC Corporation, priority 2014, dated 2020):
# Legend:
# [1] = system: corn; assay: Test C preemergence; format: in vivo, Zea mays; conditions: for Plant response rating (scale of 0 to 100 where 0 is no effect and 100 is complete control): Corn, preemergence; for Corn plant response rating (0 to 100): Preemergence, visual rating after 13 to 15 d
# Outline: (§1)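 Seeds were planted in loam soil plus sand and sprayed preemergence. In parallel, potted plants in a peat-based medium were sprayed postemergence at 2 to 18 cm (1- to 4-leaf stage). Compounds were formulated in non-phytotoxic solvent with surfactant.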
# [2] = system: foxtail, green; assay: Test D postemergence; format: in vivo, Setaria viridis; conditions: scale 0 to 100
# Outline: (§2)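 Seeds were sown in silt loam and sprayed preemergence with test chemicals in a non-phytotoxic solvent mixture containing surfactant. For postemergence tests, plants grown in peat-based medium to 2 to 18 cm (1- to 4-leaf stage) were sprayed with the same formulation. Injury was rated visually against untreated controls after 14 to 21 d in a controlled growth environment.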
# [3] = system: lambsquarters; assay: Test C preemergence; format: in vivo, Chenopodium album; conditions: for Plant response rating (scale of 0 to 100 where 0 is no effect and 100 is complete control): Lambsquarters, preemergence; for Lambsquarters plant response rating (0 to 100): Preemergence, visual rating after 13 to 15 d
# Outline: as §1
# [4] = system: canarygrass; assay: Test D postemergence; format: in vivo, Phalaris minor; conditions: scale 0 to 100
# Outline: as §2
# [5] = system: windgrass; assay: Test D preemergence; format: in vivo, Apera spica-venti; conditions: scale 0 to 100
# Outline: as §2
# [6] = system: wheat, winter; assay: Test D preemergence; format: in vivo, Triticum aestivum; conditions: scale 0 to 100
# Outline: as §2
# [7] = system: wheat, spring; assay: Test D preemergence; format: in vivo, Triticum aestivum; conditions: scale 0 to 100
# Outline: as §2
# [8] = system: galium; assay: Test C preemergence; format: in vivo, Galium aparine; conditions: for Plant response rating (scale of 0 to 100 where 0 is no effect and 100 is complete control): Galium, preemergence; for Galium plant response rating (0 to 100): Preemergence, visual rating after 13 to 15 d
# Outline: as §1
# [9] = system: velvetleaf; assay: Test C preemergence; format: in vivo, Abutilon theophrasti; conditions: for Velvetleaf plant response rating (0 to 100): Preemergence, visual rating after 13 to 15 d
# Outline: as §1
# [10] = system: ragweed; assay: Test C preemergence; format: in vivo, Ambrosia elatior; conditions: for Ragweed plant response rating (0 to 100): Preemergence, visual rating after 13 to 15 d; for Plant response rating (scale of 0 to 100 where 0 is no effect and 100 is complete control): Ragweed, preemergence
# Outline: as §1
# [11] = system: oat, wild; assay: Test D preemergence; format: in vivo, Avena fatua; conditions: scale 0 to 100
# Outline: as §2
# [12] = system: chickweed; assay: Test D postemergence; format: in vivo, Stellaria media; conditions: scale 0 to 100
# Outline: as §2
# [13] = system: bromegrass, down; assay: Test D preemergence; format: in vivo, Bromus tectorum; conditions: scale 0 to 100
# Outline: as §2
# [14] = system: barley, spring; assay: Test D preemergence; format: in vivo, Hordeum vulgare; conditions: scale 0 to 100
# Outline: as §2
# [15] = system: barley, winter; assay: Test D preemergence; format: in vivo, Hordeum vulgare; conditions: scale 0 to 100
# Outline: as §2
# [16] = system: foxtail, giant; assay: Test C preemergence; format: in vivo, Setaria faberii; conditions: for Plant response rating (scale of 0 to 100 where 0 is no effect and 100 is complete control): Foxtail, Giant, preemergence; for Foxtail, Giant plant response rating (0 to 100): Preemergence, visual rating after 13 to 15 d
# Outline: as §1
# [17] = system: barnyardgrass; assay: Test C preemergence; format: in vivo, Echinochloa crus-galli; conditions: for Plant response rating (scale of 0 to 100 where 0 is no effect and 100 is complete control): Barnyardgrass, preemergence; for Barnyardgrass plant response rating (0 to 100): Preemergence, visual rating after 13 to 15 d
# Outline: as §1
smiles,measurement,setting,value
"CCc1nc(-c2ccc(C(F)(F)F)cc2)nn1Cc1ccnc(C(F)(F)F)c1 [Compound 1, 4-[[5-ethyl-3-[4-(trifluoromethyl)phenyl]-1H-1,2,4-triazol-1-yl]methyl]-2-(trifluoromethyl)pyridine]",Plant response rating (scale of 0 to 100 where 0 is no effect and 100 is complete control),[1]; 125 g ai/ha,25
same,Plant response rating (scale of 0 to 100 where 0 is no effect and 100 is complete control),[1]; 250 g ai/ha,40
same,Corn plant response rating (0 to 100),[1]; 31 g ai/ha,5
same,Corn plant response rating (0 to 100),[1]; 62 g ai/ha,15
same,"Plant response rating: Foxtail, Green",[2]; 31 g ai/ha,25
same,"Plant response rating: Foxtail, Green",[2]; 62 g ai/ha,45
same,"Plant response rating: Foxtail, Green",[2]; 125 g ai/ha,65
same,"Plant response rating: Foxtail, Green",[2]; 250 g ai/ha,75
same,Plant response rating (scale of 0 to 100 where 0 is no effect and 100 is complete control),[3]; 125 g ai/ha,98
same,Plant response rating (scale of 0 to 100 where 0 is no effect and 100 is complete control),[3]; 250 g ai/ha,98
same,Lambsquarters plant response rating (0 to 100),[3]; 31 g ai/ha,90
same,Lambsquarters plant response rating (0 to 100),[3]; 62 g ai/ha,98
same,Plant response rating: Canarygrass,[4]; 31 g ai/ha,15
same,Plant response rating: Canarygrass,[4]; 62 g ai/ha,20
same,Plant response rating: Canarygrass,[4]; 125 g ai/ha,35
same,Plant response rating: Canarygrass,[4]; 250 g ai/ha,65
same,Plant response rating: Windgrass,[5]; 62 g ai/ha,100
same,Plant response rating: Windgrass,[5]; 125 g ai/ha,100
same,Plant response rating: Windgrass,[5]; 250 g ai/ha,100
same,"Plant response rating: Wheat, Winter",[6]; 62 g ai/ha,0
same,"Plant response rating: Wheat, Winter",[6]; 125 g ai/ha,0
same,"Plant response rating: Wheat, Winter",[6]; 250 g ai/ha,0
same,"Plant response rating: Wheat, Spring",[7]; 62 g ai/ha,0
same,"Plant response rating: Wheat, Spring",[7]; 125 g ai/ha,0
same,"Plant response rating: Wheat, Spring",[7]; 250 g ai/ha,5
same,Plant response rating (scale of 0 to 100 where 0 is no effect and 100 is complete control),[8]; 125 g ai/ha,100
same,Plant response rating (scale of 0 to 100 where 0 is no effect and 100 is complete control),[8]; 250 g ai/ha,100
same,Galium plant response rating (0 to 100),[8]; 31 g ai/ha,70
same,Galium plant response rating (0 to 100),[8]; 62 g ai/ha,98
same,Velvetleaf plant response rating (0 to 100),[9]; 31 g ai/ha,15
same,Velvetleaf plant response rating (0 to 100),[9]; 62 g ai/ha,30
same,Plant response rating (scale of 0 to 100 where 0 is no effect and 100 is complete control),"[9]; Velvetleaf, preemergence, 250 g ai/ha",75
same,Ragweed plant response rating (0 to 100),[10]; 31 g ai/ha,35
same,Ragweed plant response rating (0 to 100),[10]; 62 g ai/ha,50
same,Plant response rating (scale of 0 to 100 where 0 is no effect and 100 is complete control),[10]; 125 g ai/ha,60
same,Plant response rating (scale of 0 to 100 where 0 is no effect and 100 is complete control),[10]; 250 g ai/ha,70
same,"Plant response rating: Oat, Wild",[11]; 62 g ai/ha,0
same,"Plant response rating: Oat, Wild",[11]; 125 g ai/ha,15
same,"Plant response rating: Oat, Wild",[11]; 250 g ai/ha,45
same,Plant response rating: Chickweed,[12]; 31 g ai/ha,75
same,Plant response rating: Chickweed,[12]; 62 g ai/ha,80
same,Plant response rating: Chickweed,[12]; 125 g ai/ha,85
same,Plant response rating: Chickweed,[12]; 250 g ai/ha,90
same,"Plant response rating: Bromegrass, Down",[13]; 31 g ai/ha,0
same,"Plant response rating: Bromegrass, Down",[13]; 62 g ai/ha,0
same,"Plant response rating: Bromegrass, Down",[13]; 125 g ai/ha,10
same,"Plant response rating: Bromegrass, Down",[13]; 250 g ai/ha,10
same,"Plant response rating: Barley, Spring",[14]; 31 g ai/ha,0
same,"Plant response rating: Barley, Spring",[14]; 62 g ai/ha,0
same,"Plant response rating: Barley, Spring",[14]; 125 g ai/ha,0
same,"Plant response rating: Barley, Spring",[14]; 250 g ai/ha,5
same,"Plant response rating: Barley, Winter",[15]; 31 g ai/ha,0
same,"Plant response rating: Barley, Winter",[15]; 62 g ai/ha,5
same,"Plant response rating: Barley, Winter",[15]; 125 g ai/ha,10
same,"Plant response rating: Barley, Winter",[15]; 250 g ai/ha,20
same,Plant response rating (scale of 0 to 100 where 0 is no effect and 100 is complete control),[16]; 125 g ai/ha,100
same,Plant response rating (scale of 0 to 100 where 0 is no effect and 100 is complete control),[16]; 250 g ai/ha,100
same,"Foxtail, Giant plant response rating (0 to 100)",[16]; 31 g ai/ha,98
same,"Foxtail, Giant plant response rating (0 to 100)",[16]; 62 g ai/ha,98
same,Plant response rating (scale of 0 to 100 where 0 is no effect and 100 is complete control),[17]; 125 g ai/ha,55
same,Plant response rating (scale of 0 to 100 where 0 is no effect and 100 is complete control),[17]; 250 g ai/ha,70
same,Barnyardgrass plant response rating (0 to 100),[17]; 31 g ai/ha,10
same,Barnyardgrass plant response rating (0 to 100),[17]; 62 g ai/ha,35
